Like-named read-outs stand apart in the source and are kept apart here.
Assays:
mA3AR = mA3AR (Mus musculus (Mouse), UniProt Q61618); assay: Competition binding at mA3AR, HEK293 cell membranes
mA1AR = mA1AR (Mus musculus (Mouse), UniProt Q60612); assay: Competition binding at mA1AR, HEK293 cell membranes; conditions: read-out: A1AR % inhibition, mouse data (m)
hA1AR = hA1AR (Homo sapiens (Human), UniProt P30542); assay: Radioligand binding at hA1AR, CHO cell membranes, [3H]R-PIA; conditions: for inhibition at 10 µM: read-out: hA1AR % inhibition
hA1AR, sequence (P30542 whole entry): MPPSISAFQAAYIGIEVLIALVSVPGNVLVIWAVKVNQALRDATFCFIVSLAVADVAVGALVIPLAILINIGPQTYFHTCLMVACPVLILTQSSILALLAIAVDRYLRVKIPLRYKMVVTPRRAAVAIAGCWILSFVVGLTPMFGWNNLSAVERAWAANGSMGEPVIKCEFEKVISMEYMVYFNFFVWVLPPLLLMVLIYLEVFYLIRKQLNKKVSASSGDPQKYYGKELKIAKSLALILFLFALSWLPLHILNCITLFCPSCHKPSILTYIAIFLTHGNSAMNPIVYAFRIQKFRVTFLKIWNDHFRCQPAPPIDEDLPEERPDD

[1] = tested on: muscarinic, adrenergic, dopamine, GABA, histamine, opiate, serotonin receptors and transporters; assay: Off-target binding panel (receptors and transporters of Table 5); conditions: for Interactions at other receptors of the off-target panel: 10 μM
From the text: (§1) The results are set forth below.

hA2AAR = hA2AAR (Homo sapiens (Human), UniProt P29274); assay: Radioligand binding at hA2AAR, HEK293 cell membranes, [3H]CGS21680; conditions: for inhibition at 10 µM: read-out: hA2AAR % inhibition
hA2AAR, sequence (P29274 whole entry): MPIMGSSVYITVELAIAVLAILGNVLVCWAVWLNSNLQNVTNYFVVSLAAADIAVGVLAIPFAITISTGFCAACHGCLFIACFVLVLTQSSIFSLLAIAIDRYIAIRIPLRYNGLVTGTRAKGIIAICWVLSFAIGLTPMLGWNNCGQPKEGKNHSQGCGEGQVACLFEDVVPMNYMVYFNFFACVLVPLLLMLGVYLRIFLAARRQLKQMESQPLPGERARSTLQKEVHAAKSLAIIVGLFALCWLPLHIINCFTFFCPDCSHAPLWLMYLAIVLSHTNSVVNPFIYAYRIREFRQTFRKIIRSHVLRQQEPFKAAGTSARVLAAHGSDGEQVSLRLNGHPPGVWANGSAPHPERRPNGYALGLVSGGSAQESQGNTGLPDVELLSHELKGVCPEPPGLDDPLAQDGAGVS

mA2AAR = mA2AAR (Mus musculus (Mouse), UniProt Q60613); assay: Competition binding at mA2AAR, HEK293 cell membranes; conditions: read-out: A2AAR % inhibition, mouse data (m) (converted)
mA2AAR, sequence (Q60613 whole entry): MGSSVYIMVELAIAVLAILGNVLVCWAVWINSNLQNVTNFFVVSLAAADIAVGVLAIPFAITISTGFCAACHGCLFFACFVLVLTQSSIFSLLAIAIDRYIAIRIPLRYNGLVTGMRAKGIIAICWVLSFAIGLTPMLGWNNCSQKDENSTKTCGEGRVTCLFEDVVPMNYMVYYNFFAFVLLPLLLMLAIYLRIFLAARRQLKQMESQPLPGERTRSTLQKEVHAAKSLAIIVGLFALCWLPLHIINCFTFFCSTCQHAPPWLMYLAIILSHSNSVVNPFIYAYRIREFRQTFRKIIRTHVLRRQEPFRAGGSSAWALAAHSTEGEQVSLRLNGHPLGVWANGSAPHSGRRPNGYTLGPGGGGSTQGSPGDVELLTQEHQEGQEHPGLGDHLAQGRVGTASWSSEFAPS

human DAT = human DAT (Homo sapiens (Human), UniProt Q01959); assay: Radioligand ([3H]WIN35428) binding at the dopamine transporter; conditions: for Ki: off-target binding
human DAT, sequence (Q01959 whole entry): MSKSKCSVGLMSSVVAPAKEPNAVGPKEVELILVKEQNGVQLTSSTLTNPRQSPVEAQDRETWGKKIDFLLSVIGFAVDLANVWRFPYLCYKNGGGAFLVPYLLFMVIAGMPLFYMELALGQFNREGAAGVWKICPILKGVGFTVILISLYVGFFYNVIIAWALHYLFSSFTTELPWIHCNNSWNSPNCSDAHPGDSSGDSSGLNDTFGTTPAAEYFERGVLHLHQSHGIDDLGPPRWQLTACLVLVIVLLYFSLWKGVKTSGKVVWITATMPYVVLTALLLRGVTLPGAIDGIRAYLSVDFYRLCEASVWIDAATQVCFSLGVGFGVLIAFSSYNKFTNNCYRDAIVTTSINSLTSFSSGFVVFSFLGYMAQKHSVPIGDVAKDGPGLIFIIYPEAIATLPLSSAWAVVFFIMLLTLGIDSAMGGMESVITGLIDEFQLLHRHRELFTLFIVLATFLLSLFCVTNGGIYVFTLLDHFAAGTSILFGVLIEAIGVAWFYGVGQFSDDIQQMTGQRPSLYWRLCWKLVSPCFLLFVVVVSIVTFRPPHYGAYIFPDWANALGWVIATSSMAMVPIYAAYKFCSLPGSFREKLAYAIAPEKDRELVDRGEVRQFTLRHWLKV

[2] = target: Alpha 2B adrenergic receptor (Homo sapiens (Human), UniProt P18089); assay: Off-target binding, α2B; conditions: read-out: Ki at α2B
Alpha 2B adrenergic receptor, sequence (P18089 whole entry): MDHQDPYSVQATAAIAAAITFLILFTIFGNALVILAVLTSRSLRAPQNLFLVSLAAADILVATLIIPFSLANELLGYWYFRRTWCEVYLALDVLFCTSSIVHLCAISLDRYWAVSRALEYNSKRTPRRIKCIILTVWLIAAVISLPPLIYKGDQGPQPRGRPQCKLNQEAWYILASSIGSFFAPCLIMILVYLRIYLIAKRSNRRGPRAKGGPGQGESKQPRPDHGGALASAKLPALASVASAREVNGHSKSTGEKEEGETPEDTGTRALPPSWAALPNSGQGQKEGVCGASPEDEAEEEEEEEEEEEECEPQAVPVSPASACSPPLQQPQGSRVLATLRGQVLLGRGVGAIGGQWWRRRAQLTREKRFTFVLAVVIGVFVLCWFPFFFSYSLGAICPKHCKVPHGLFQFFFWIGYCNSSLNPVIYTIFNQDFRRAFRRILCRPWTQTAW
From the text: as §1

[3] = tested on: chronic constriction injury model of neuropathic pain; assay: CCI model of neuropathic pain, reversal of mechano-allodynia; type: in vivo, mice; conditions: for Max. effect Emax (% ± SEM) / Time of peak protection / Effect at 3 h (% ± SEM): 3 μmol/kg p.o., mice; for Max. effect Emax (% ± SEM) / Time of peak protection: ipsilateral hind paw; for Duration of action / Efficacy in reversing NP in vivo (of full reversal at peak effect): CCI model
[4] = tested on: chronic constriction injury (CCI) model, mechano-allodynia; assay: Morphine analgesic tolerance in CCI model, co-administration with A3AR agonist; type: in vivo, mice
r Sigma 1 = r Sigma 1 (Rattus norvegicus (Rat), UniProt Q9R0C9); assay: Off-target binding, Sigma-1; conditions: 10 μM
r Sigma 1, sequence (Q9R0C9 whole entry): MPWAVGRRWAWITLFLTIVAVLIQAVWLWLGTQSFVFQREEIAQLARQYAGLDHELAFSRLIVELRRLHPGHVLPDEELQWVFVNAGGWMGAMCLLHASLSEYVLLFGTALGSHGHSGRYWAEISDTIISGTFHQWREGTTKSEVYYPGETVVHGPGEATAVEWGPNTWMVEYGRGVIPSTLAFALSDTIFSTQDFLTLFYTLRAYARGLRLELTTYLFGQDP
From the text: as §1

hA3AR = hA3AR (Homo sapiens (Human), UniProt P0DMS8); assay: Radioligand binding at hA3AR, CHO cell membranes, [125I]I-AB-MECA
hA3AR, sequence (P0DMS8 whole entry): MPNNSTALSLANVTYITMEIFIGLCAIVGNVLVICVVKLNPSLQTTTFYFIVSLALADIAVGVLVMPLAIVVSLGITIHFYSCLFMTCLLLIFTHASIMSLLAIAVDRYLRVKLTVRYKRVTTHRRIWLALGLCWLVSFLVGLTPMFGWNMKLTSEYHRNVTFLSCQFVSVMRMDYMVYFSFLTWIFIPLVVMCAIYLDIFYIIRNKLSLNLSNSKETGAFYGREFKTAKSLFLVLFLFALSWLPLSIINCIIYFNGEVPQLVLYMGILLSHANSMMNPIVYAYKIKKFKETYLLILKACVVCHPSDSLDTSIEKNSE

r Sigma 2 = r Sigma 2 (Rattus norvegicus (Rat), UniProt Q5U3Y7); assay: Off-target binding, Sigma-2; conditions: 10 μM
r Sigma 2, sequence (Q5U3Y7 whole entry): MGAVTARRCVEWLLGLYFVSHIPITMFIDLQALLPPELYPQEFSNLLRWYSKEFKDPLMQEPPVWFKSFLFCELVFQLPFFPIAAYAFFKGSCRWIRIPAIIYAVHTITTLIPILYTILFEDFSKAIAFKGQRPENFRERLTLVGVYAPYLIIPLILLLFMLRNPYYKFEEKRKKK
From the text: as §1

[5] = Stability in simulated fluids (gastric, intestinal); type: in vitro ADME
From the text: In vitro stability parameters for selected compounds are set forth in Table 6, in accordance with an embodiment of the invention.

PBR = PBR (Homo sapiens (Human), UniProt P30536); assay: Off-target binding, PBR; conditions: 10 μM
PBR, sequence (P30536 whole entry, species assumed): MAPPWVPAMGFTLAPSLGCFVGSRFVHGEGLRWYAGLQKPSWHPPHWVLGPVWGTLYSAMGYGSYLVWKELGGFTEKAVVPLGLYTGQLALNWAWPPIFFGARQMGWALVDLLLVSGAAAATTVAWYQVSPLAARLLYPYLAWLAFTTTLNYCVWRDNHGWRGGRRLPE
From the text: as §1

mA1AR, sequence (Q60612 whole entry): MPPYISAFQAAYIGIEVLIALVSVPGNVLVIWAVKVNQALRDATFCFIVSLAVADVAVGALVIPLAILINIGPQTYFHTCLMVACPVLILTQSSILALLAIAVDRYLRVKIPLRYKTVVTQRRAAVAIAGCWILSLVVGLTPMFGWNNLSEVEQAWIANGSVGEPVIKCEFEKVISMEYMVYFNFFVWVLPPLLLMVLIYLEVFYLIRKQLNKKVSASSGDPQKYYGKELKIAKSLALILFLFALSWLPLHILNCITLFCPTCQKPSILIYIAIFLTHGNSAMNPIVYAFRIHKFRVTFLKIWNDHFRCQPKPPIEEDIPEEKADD
mA3AR, sequence (Q61618 whole entry): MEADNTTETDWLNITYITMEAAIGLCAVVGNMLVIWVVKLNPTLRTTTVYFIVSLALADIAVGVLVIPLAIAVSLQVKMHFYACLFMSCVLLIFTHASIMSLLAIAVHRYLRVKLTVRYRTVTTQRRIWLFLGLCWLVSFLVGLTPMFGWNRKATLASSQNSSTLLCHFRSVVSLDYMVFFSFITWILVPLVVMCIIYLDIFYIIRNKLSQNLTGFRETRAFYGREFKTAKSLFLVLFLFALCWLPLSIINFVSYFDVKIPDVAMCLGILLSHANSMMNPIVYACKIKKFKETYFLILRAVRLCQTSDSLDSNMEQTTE

Work on `CNC(=O)[C@@]12C[C@@H]1[C@@H](n1cnc3c(NC)nc(C#Cc4cccs4)nc31)[C@H](O)[C@@H]2O` [Compound 8, (1S,2R,3S,4R,5S)-2,3-Dihydroxy-N-methyl-4-(6-(methylamino)-2-(thiophen-2-ylethynyl)-9H-purin-9-yl)bicyclo[3.1.0]hexane-1-carboxamide] yielded a Ki (mA3AR) of 43 ± 2 nM, an inhibition at 10 µM (mA1AR) of 47% and an inhibition at 10 µM (hA1AR) of 25%. The “Off-target effects compared with MRS5698 and MRS5676” value [1] was “significantly fewer off-target effects”, the “Interactions at other receptors of the off-target panel” value (“Interactions at other receptors” below) [1] was “No interactions at other receptors” and the inhibition at 10 µM (hA2AAR) was 20 ± 6%. It also gave an inhibition at 10 µM (mA2AAR) of 3%, a Ki (human DAT; read-out: Ki at DAT) of 760 nM and a Ki (human DAT; read-out: Ki class at DAT) of under 1000 nM. For the same compound, the Ki [2] was 5500 nM, the “Max. effect Emax (% ± SEM)” value [3] was 100 ± 0.0% and the “Time of peak protection” value [3] was 1 h. The Duration of action [3] was about 3 h and the “Efficacy in reversing NP in vivo (of full reversal at peak effect)” value (shortened to “Efficacy in reversing NP in vivo”) [3] was about 100%.
In the case of `CNC(=O)[C@@]12C[C@@H]1[C@@H](n1cnc3c(NC)nc(C#Cc4cc[nH]n4)nc31)[C@H](O)[C@@H]2O` [Compound 9, (1S,2R,3S,4R,5S)-4-(2-((1H-Pyrazol-3-yl)ethynyl)-6-(methylamino)-9H-purin-9-yl)-2,3-dihydroxy-N-methylbicyclo[3.1.0]hexane-1-carboxamide], the Ki (mA3AR) is reported as 50 ± 2 nM, the inhibition at 10 µM (hA1AR) is reported as 30% and the inhibition at 10 µM (hA2AAR) is reported as 19 ± 2%. For the same compound, the “Time of peak protection” value [3] was 0.5 to 1 h.
In the case of `CCNc1nc(C#Cc2ccc(Cl)s2)nc2c1ncn2[C@H]1C(O)[C@@H](O)[C@]2(C(=O)NC)C[C@H]12` (stereo partly shown) [Compound 126], the “Increase of the level of radioligand ([3H]WIN35428) binding at the human DAT” value (human DAT; 10 μM) is reported as 329%.
With `CN1CC[C@]23c4c5ccc(O)c4O[C@H]2[C@@H](O)C=C[C@H]3[C@H]1C5` [morphine] the “Reversal of mechano-allodynia by morphine alone on daily dosing” value ([4]; given daily over 25 days) was “loses its ability to reverse mechano-allodynia” and the “Reversal of mechano-allodynia by morphine alone” value ([4]; s.c. injection at day 7) was “near-to-maximal reversal of mechano-allodynia”.
With `CNC(=O)[C@@]12C[C@@H]1[C@@H](n1cnc3c(NC)nc(C#Cc4ccco4)nc31)[C@H](O)[C@@H]2O` [Compound 17, (1S,2R,3S,4R,5S)-4-(2-(Furan-2-ylethynyl)-6-(methylamino)-9H-purin-9-yl)-2,3-dihydroxy-N-methylbicyclo[3.1.0]hexane-1-carboxamide] the Ki (mA3AR) was 54 ± 11 nM, the inhibition at 10 µM (mA1AR) was 59% and the “Interaction at Sigma-1” value (r Sigma 1) was “weak interactions”. The inhibition at 10 µM (hA1AR) was 30%, the Ki (hA3AR) was 0.62 ± 0.06 nM and the “Off-target effects compared with MRS5698 and MRS5676” value [1] was “significantly fewer off-target effects”. For the same compound, the “Interactions at other receptors” value [1] was “No interactions”, the inhibition at 10 µM (hA2AAR) was 18 ± 9% and the “Interaction at Sigma-2” value (r Sigma 2) was “weak interactions”. For the same compound, the half-life ([5]; simulated gastric fluid, read-out: Stability in simulated fluids (t1/2, min): Gastric) was over 480 min, the half-life ([5]; simulated intestinal fluid, read-out: Stability in simulated fluids (t1/2, min): Intestinal) was over 480 min and the inhibition at 10 µM (mA2AAR) was 17%. The “Effect at 3 h (% ± SEM)” value [3] was 27.6 ± 1.3%, the “Max. effect Emax (% ± SEM)” value [3] was 100 ± 0.0% and the “Time of peak protection” value [3] was 1 h. The Duration of action [3] was about 3 h, the “Efficacy in reversing NP in vivo” value [3] was about 100% and the “Interaction at PBR” value (PBR) was “weak interactions”.
`CNC(=O)[C@@]12C[C@@H]1[C@@H](n1cnc3c(/C=C(\O)c4ccc(C(C)(C)C)cc4)nc(C#Cc4ccc(C(C)(C)C)cc4)nc31)C(O)C2O` (stereo in doubt) [Compound 40, (1S,2S,3R,4R,5S)-4-(6-((Z)-2-(4-(tert-Butyl)phenyl)-2-hydroxyvinyl)-2-((4-(tert-butyl)phenyl)ethynyl)-9H-purin-9-yl)-2,3-dihydroxy-N-methylbicyclo[3.1.0]hexane-1-carboxamide] showed a Ki (mA3AR) of 136 ± 9 nM, an inhibition at 10 µM (hA1AR) of 16 ± 5% and a Ki (hA3AR) of 78.5 ± 19.8 nM. The inhibition at 10 µM (hA2AAR) was 16 ± 7%.
With `CCc1ccc(C#Cc2nc(NC)c3ncn([C@H]4[C@H](O)[C@H](O)[C@]5(C(=O)NC)C[C@H]45)c3n2)o1` [Compound 34, (1S,2R,3S,4R,5S)-4-(2-((5-Ethylfuran-2-yl)ethynyl)-6-(methylamino)-9H-purin-9-yl)-2,3-dihydroxy-N-methylbicyclo[3.1.0]hexane-1-carboxamide] the inhibition at 10 µM (hA1AR) was 18%, the Ki (hA3AR) was 1.5 ± 0.28 nM and the inhibition at 10 µM (hA2AAR) was 4 ± 4%. The “Time of peak protection” value [3] was 1 h.
Compound `CNC(=O)[C@@]12C[C@@H]1[C@@H](n1cnc3c(NC)nc(C#Cc4ccncc4)nc31)[C@H](O)[C@@H]2O` [Compound 300, (1S,2R,3S,4R,5S)-2,3-Dihydroxy-N-methyl-4-(6-(methylamino)-2-(pyridin-4-ylethynyl)-9H-purin-9-yl)bicyclo[3.1.0] hexane-1-carboxamide] has an inhibition at 10 µM (hA1AR) of 15%, a Ki (hA3AR) of 2.07 ± 0.16 nM and an inhibition at 10 µM (hA2AAR) of 2 ± 2%. The “Time of peak protection” value [3] was 1 h and the “Efficacy in reversing NP in vivo” value [3] was “low efficacy”.
For `CNC(=O)[C@@]12C[C@@H]1[C@@H](n1cnc3c(NC)nc(C#Cc4ccccc4OC)nc31)[C@H](O)[C@@H]2O` [Compound 13, (1S,2R,3S,4R,5S)-2,3-Dihydroxy-4-(2-((2-methoxyphenyl)ethynyl)-6-(methylamino)-9H-purin-9-yl)-N-methylbicyclo[3.1.0]hexane-1-carboxamide], the inhibition at 10 µM (hA1AR) was 12%, the Ki (hA3AR) was 0.77 ± 0.17 nM and the inhibition at 10 µM (hA2AAR) was 20 ± 7%. The “Max. effect Emax (% ± SEM)” value [3] was 64.3 ± 10.7%, the “Time of peak protection” value [3] was 1 h and the “Efficacy in reversing NP in vivo” value [3] was about 70%.
In the case of `CNC(=O)[C@@]12C[C@@H]1[C@@H](n1cnc3c(NC)nc(C#Cc4cnn(C)c4)nc31)[C@H](O)[C@@H]2O` [Compound 18, (1S,2R,3S,4R,5S)-2,3-Dihydroxy-N-methyl-4-(2-((1-methyl-1H-pyrazol-4-yl)ethynyl)-6-(methylamino)-9H-purin-9-yl)bicyclo[3.1.0]hexane-1-carboxamide], the inhibition at 10 µM (mA1AR) is reported as 72%, the “Interaction at Sigma-1” value (r Sigma 1) is reported as “weak interactions” and the inhibition at 10 µM (hA1AR) is reported as 35%. For the same compound, the “Off-target effects compared with MRS5698 and MRS5676” value [1] was “significantly fewer off-target effects”, the “Interactions at other receptors” value [1] was “No interactions” and the inhibition at 10 µM (hA2AAR) was 12 ± 6%. For the same compound, the “Interaction at Sigma-2” value (r Sigma 2) was “weak interactions”, the inhibition at 10 µM (mA2AAR) was 16% and the “Max. effect Emax (% ± SEM)” value [3] was 87.3 ± 12.7%. For the same compound, the “Time of peak protection” value [3] was 1 h, the “Efficacy in reversing NP in vivo” value [3] was about 100% and the “Interaction at PBR” value (PBR) was “weak interactions”.
`CNC(=O)[C@@]12C[C@@H]1[C@@H](n1cnc3c(NC)nc(C#Cc4ncccn4)nc31)[C@H](O)[C@@H]2O` [Compound 6, (1S,2R,3S,4R,5S)-2,3-Dihydroxy-N-methyl-4-(6-(methylamino)-2-(pyrimidin-2-ylethynyl)-9H-purin-9-yl)bicyclo[3.1.0]hexane-1-carboxamide] gave a Ki (mA3AR) of 65 ± 6 nM, an inhibition at 10 µM (hA1AR) of 25 ± 10% and an inhibition at 10 µM (hA2AAR) of 27 ± 5%. For the same compound, the “Max. effect Emax (% ± SEM)” value [3] was 92.3 ± 7.7%, the “Time of peak protection” value [3] was 0.5 to 1 h and the “Efficacy in reversing NP in vivo” value [3] was “less than full efficacy”.
Compound `CNC(=O)[C@]12CC1[C@@H](n1cnc3c(NC)nc(-n4cc(-c5cnn(C)c5)nn4)nc31)[C@H](O)C2O` (stereo partly shown) [Compound 106] has a hA1AR % inhibition (hA1AR; inhibition of binding at 10 μM) of 2 ± 2%, a Ki (hA3AR) of 2.16 ± 0.32 nM and a hA2AAR % inhibition (hA2AAR; inhibition of binding at 10 μM) of 1 ± 1%. For the same compound, the “Effect at 3 h (% ± SEM)” value [3] was 22 ± 7%, the “Max. effect Emax (% ± SEM)” value [3] was 85 ± 5% and the “Time of peak protection” value [3] was 1 h.

Source: patent US10577368B2 (The United States of America, as represented by the …, priority 2013, dated 2020)
